According to ChEMBL document CHEMBL1151509, “Synthesis of active metabolites of indole pyrrolothiazole paf antagonists” (Bioorg Med Chem Lett, 1995):
pKi: −log10 of the molar value.

Columns and labels:
[1] = tested on: Rattus norvegicus; test: Inhibition of PAF induced cutaneous vascular permeability in rat by intravenous administration; assay type: functional
[2] = molecular target: Platelet-activating factor receptor (Rattus norvegicus, UniProt P46002); test: Inhibition of platelet activating factor(PAF) by binding to PAF receptor
Chain of Platelet-activating factor receptor (P46002 whole entry): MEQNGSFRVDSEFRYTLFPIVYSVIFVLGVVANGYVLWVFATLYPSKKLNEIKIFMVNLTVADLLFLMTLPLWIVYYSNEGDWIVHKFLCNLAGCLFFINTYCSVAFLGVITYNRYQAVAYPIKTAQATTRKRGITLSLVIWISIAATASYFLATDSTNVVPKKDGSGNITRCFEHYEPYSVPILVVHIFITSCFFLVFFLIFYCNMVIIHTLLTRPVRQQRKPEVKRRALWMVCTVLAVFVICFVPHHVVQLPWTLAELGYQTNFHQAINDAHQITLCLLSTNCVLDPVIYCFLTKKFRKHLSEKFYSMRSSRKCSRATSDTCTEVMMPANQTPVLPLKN

Row | pKi [2] | SMILES | ED50 ([1]; Rattus norvegicus, iv, read-out: ED50) [mg/kg] | ED50 [1] [mg/kg]
1 | – | CN(C)C(=O)n1cc(C(=O)c2ccn3c2CS[C@@H]3c2cccnc2)c2ccc(-c3ccc(F)cc3)cc21 | 0.006 | –
2 | 8.07 | CN(C)C(=O)n1cc(C(=O)c2ccn3c2C[S+]([O-])[C@@H]3c2cccnc2)c2ccc(-c3ccc(F)cc3)cc21 (stereo in doubt; cis) | – | 0.025
3 | 7.17 | CN(C)C(=O)n1cc(C(=O)c2ccn3c2C[S+]([O-])[C@@H]3c2cccnc2)c2ccc(-c3ccc(F)cc3)cc21 (stereo in doubt; trans) | – | 0.1
